Source: patent US8138168B1 (Takeda Pharmaceutical Company Limited, priority 2007, dated 2012)

Target: T1, Recombinant human renin (Homo sapiens, UniProt P00797)
T1 construct: isolate the active form (residues 67-406); made in house; host or cells: FreeStyle 293-F cells (transient expression of pcDNA3.1(+)/hREN)
T1 sequence (P00797 67-406): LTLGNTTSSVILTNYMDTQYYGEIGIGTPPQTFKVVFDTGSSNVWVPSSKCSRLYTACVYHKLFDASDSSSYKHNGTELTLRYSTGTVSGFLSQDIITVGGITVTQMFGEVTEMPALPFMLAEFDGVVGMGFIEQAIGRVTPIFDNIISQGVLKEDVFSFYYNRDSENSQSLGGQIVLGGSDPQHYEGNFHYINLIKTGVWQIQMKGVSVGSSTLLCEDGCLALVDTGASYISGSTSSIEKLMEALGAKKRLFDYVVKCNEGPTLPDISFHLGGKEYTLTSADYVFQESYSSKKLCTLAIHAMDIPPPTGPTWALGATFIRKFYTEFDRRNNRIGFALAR
Assay: In vitro enzymatic activity assay of renin inhibitors (fluorogenic peptide substrate)
Type: biochemical
Conditions: read-out: IC50 of Exemplified Compounds Against Renin
In short: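 Recombinant human renin (3 nM final) pre-incubated 10 min at 37 °C with compounds in pH 7.4 Hepes/EDTA/DTT/0.1 mg/mL BSA/Brij35 buffer (optionally plus 2% BSA), 5% DMSO final; fluorogenic QXL520/HiLyteFluo488 peptide substrate added.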

Row | IC50 [nM] | SMILES
1 | 100 to 1000 | CC(=O)NCCn1c([C@@H]2CCCN(C(=O)C[C@H](N)Cc3ccc(-c4ccnc(O)c4)cc3)C2)nc2ccccc21 [Compound 461, N-(2-(2-((R)-1-((R)-3-amino-4-(4-(2-hydroxypyridin-4-yl)phenyl)butanoyl)piperidin-3-yl)-1H-benzo[d]imidazol-1-yl)ethyl)acetamide]
2 | < 100 | COCCCn1c([C@@H]2CCCN(C(=O)C[C@H](N)Cc3ccc(-c4ccc(OC)nc4OC)cc3)C2)nc2ccccc21 [Compound 132, (R)-3-amino-4-(4-(2,6-dimethoxypyridin-3-yl)phenyl)-1-((R)-3-(1-(3-methoxypropyl)-1H-benzo[d]imidazol-2-yl)piperidin-1-yl)butan-1-one]
3 | 100 to 1000 | COCCCn1c([C@@H]2CCCN(C(=O)C[C@H](N)Cc3ccc(N4CCN(c5ccccc5)CC4)cc3)C2)nc2ccccc21 [Compound 231, (R)-3-amino-1((R)-3-(1-(3-methoxypropyl)-1H-benzo[d]imidazol-2-yl)piperidin-1-yl)-4-(4-(4-phenylpiperazin-1-yl)phenyl)butan-1-one]
4 | > 1000 | N[C@H](Cc1ccccc1)C(=O)N1CCCC(c2nc3ccccc3[nH]2)C1 (stereo partly drawn) [Compound 58, (2R)-1-(3-(1H-benzo[d]imidazol-2-yl)piperidin-1-yl)-2-amino-3-phenylpropan-1-one]
5 | > 1000 | N[C@@H](CC(=O)N1CCCC(c2nc3ccccc3[nH]2)C1)c1ccc([N+](=O)[O-])cc1 (stereo partly drawn) [Compound 33, (3S)-1-(3-(1H-benzo[d]imidazol-2-yl)piperidin-1-yl)-3-amino-3-(4-nitrophenyl)propan-1-one]
6 | 100 to 1000 | COCCCn1c([C@@H]2CCCN(C(=O)C[C@H](N)Cc3ccc4ccccc4c3)C2)nc2cccc(OC)c21 [Compound 108, (R)-3-amino-1-((R)-3-(7-methoxy-1-(3-methoxypropyl)-1H-benzo[d]imidazol-2-yl)piperidin-1-yl)-4-(naphthalen-2-yl)butan-1-one]
7 | < 100 | COCCCn1c([C@@H]2CCCN(C(=O)C[C@H](N)Cc3ccc(-c4ccc(C(N)=O)cc4)cc3)C2)nc2ccccc21 [Compound 168, 4′-((R)-2-Amino-4-((R)-3-(1-(3-methoxypropyl)-1H-benzo[d]imidazol-2-yl)piperidin-1-yl)-4-oxobutyl)biphenyl-4-carboxamide]
8 | 100 to 1000 | COCCCn1c([C@@H]2CCCN(C(=O)C[C@H](N)CNC(=O)c3ccccc3Cl)C2)nc2ccccc21 [Compound 320, N-((S)-2-amino-4-((R)-3-(1-(3-methoxypropyl)-1H-benzo[d]imidazol-2-yl)piperidin-1-yl)-4-oxobutyl)-2-chlorobenzamide]
9 | < 100 | COCCCn1c([C@@H]2CCCN(C(=O)C[C@H](N)Cc3ccc(-c4cnc(N)nc4)cc3)C2)nc2ccccc21 [Compound 154, (R)-3-amino-4-(4-(2-aminopyrimidin-5-yl)phenyl)-1-((R)-3-(1-(3-methoxypropyl)-1H-benzo[d]imidazol-2-yl)piperidin-1-yl)butan-1-one]
10 | 100 to 1000 | COCCCn1c([C@@H]2CCCN(C(=O)C[C@H](N)Cc3ccc4ccccc4c3)C2)nc2cc(Cl)c(Cl)cc21 [Compound 81, (R)-3-amino-1((R)-3-(5,6-dichloro-1-(3-methoxypropyl)-1H-benzo[d]imidazol-2-yl)piperidin-1-yl)-4-(naphthalen-2-yl)butan-1-one]
11 | 100 to 1000 | COCCCn1c([C@@H]2CCCN(C(=O)C[C@H](N)CNC(=O)c3cccnc3Oc3ccccc3)C2)nc2ccccc21 [Compound 299, N-((S)-2-amino-4-((R)-3-(1-(3-methoxypropyl)-1H-benzo[d]imidazol-2-yl)piperidin-1-yl)-4-oxobutyl)-2-phenoxynicotinamide]
12 | 100 to 1000 | COCCCn1c([C@@H]2CCCN(C(=O)[C@@H]3CN(S(=O)(=O)c4ccc(-c5ccccc5)cc4)C[C@H]3N)C2)nc2ccccc21 [Compound 348, ((3R,4S)-4-amino-1-(biphenyl-4-ylsulfonyl)pyrrolidin-3-yl)((R)-3-(1-(3-methoxypropyl)-1H-benzo[d]imidazol-2-yl)piperidin-1-yl)methanone]
13 | > 1000 | N[C@@H](CC(=O)N1CCCC(c2nc3ccccc3[nH]2)C1)Cc1ccc(Br)cc1 (stereo partly drawn) [Compound 34, (3R)-1-(3-(1H-benzo[d]imidazol-2-yl)piperidin-1-yl)-3-amino-4-(4-bromophenyl)butan-1-one]
14 | 100 to 1000 | COCCCn1c([C@@H]2CCCN(C(=O)[C@@H]3CN(S(=O)(=O)c4cccc(-c5ccnc(C)n5)c4)C[C@H]3N)C2)nc2ccccc21 [Compound 430, ((3R,4S)-4-amino-1-(3-(2-methylpyrimidin-4-yl)phenylsulfonyl)pyrrolidin-3-yl)((R)-3-(1-(3-methoxypropyl)-1H-benzo[d]imidazol-2-yl)piperidin-1-yl)methanone]
15 | 100 to 1000 | COCCCn1c([C@@H]2CCCN(C(=O)C[C@H](N)Cc3ccc4ccccc4c3)C2)nc2cc(F)ccc21 [Compound 96, (R)-3-amino-1((R)-3-(5-fluoro-1-(3-methoxypropyl)-1H-benzo[d]imidazol-2-yl)piperidin-1-yl)-4-(naphthalen-2-yl)butan-1-one]
16 | > 1000 | C[C@@H](N)C(=O)N1CCCC(c2nc3ccccc3[nH]2)C1 (stereo partly drawn) [Compound 50, (2R)-1-(3-(1H-benzo[d]imidazol-2-yl)piperidin-1-yl)-2-aminopropan-1-one]
17 | < 100 | COCCCn1c([C@@H]2CCCN(C(=O)C[C@H](N)Cc3ccc(-c4ccc(NC(=O)NC5CC5)cc4)cc3)C2)nc2ccccc21 [Compound 171, 1-(4′-((R)-2-Amino-4-((R)-3-(1-(3-methoxypropyl)-1H-benzo[d]imidazol-2-yl)piperidin-1-yl)-4-oxobutyl)biphenyl-4-yl)-3-cyclopropylurea]
18 | < 100 | COCCCn1c([C@@H]2CCCN(C(=O)C[C@H](N)Cc3ccc(-c4ccc(C(=O)NCCO)cc4)cc3)C2)nc2ccccc21 [Compound 182, 4′-((R)-2-amino-4-((R)-3-(1-(3-methoxypropyl)-1H-benzo[d]imidazol-2-yl)piperidin-1-yl)-4-oxobutyl)-N-(2-hydroxyethyl)biphenyl-4-carboxamide]
19 | 100 to 1000 | CC(=O)NCCn1c([C@@H]2CCCN(C(=O)C[C@H](N)Cc3ccc(-c4ccc(O)nc4)cc3)C2)nc2ccccc21 [Compound 445, N-(2-(2-((R)-1-((R)-3-amino-4-(4-(6-hydroxypyridin-3-yl)phenyl)butanoyl)piperidin-3-yl)-1H-benzo[d]imidazol-1-yl)ethyl)acetamide]
20 | > 1000 | NC1(C(=O)N2CCCC(c3nc4ccccc4[nH]3)C2)CC1 (stereo not drawn) [Compound 63, (3-(1H-benzo[d]imidazol-2-yl)piperidin-1-yl)(1-aminocyclopropyl)methanone]
21 | 100 to 1000 | COCCCn1c([C@@H]2CCCN(C(=O)C[C@H](N)CNC(=O)c3ccc(C(=O)OC)cc3)C2)nc2ccccc21 [Compound 314, methyl 4-((S)-2-amino-4-((R)-3-(1-(3-methoxypropyl)-1H-benzo[d]imidazol-2-yl)piperidin-1-yl)-4-oxobutylcarbamoyl)benzoate]
22 | 100 to 1000 | COCCCn1c([C@@H]2CCCN(C(=O)C[C@H](N)Cc3ccc4ccccc4c3)C2)nc2c(OC)cccc21 [Compound 104, (R)-3-amino-1((R)-3-(4-methoxy-1-(3-methoxypropyl)-1H-benzo[d]imidazol-2-yl)piperidin-1-yl)-4-(naphthalen-2-yl)butan-1-one]
23 | 100 to 1000 | COCCCn1c([C@@H]2CCCN(C(=O)C[C@H](N)CNC(=O)c3ccc(-c4cc(Cl)cc(Cl)c4)o3)C2)nc2ccccc21 [Compound 295, N-((S)-2-amino-4-((R)-3-(1-(3-methoxypropyl)-1H-benzo[d]imidazol-2-yl)piperidin-1-yl)-4-oxobutyl)-5-(3,5-dichlorophenyl)furan-2-carboxamide]
24 | 100 to 1000 | COCCCn1c([C@@H]2CCCN(C(=O)[C@@H]3CN(C(=O)c4cccc(Oc5ccccc5)c4)C[C@H]3N)C2)nc2ccccc21 [Compound 358, ((3R,4S)-4-amino-1-(3-phenoxybenzoyl)pyrrolidin-3-yl)((R)-3-(1-(3-methoxypropy1)-1H-benzo[d]imidazol-2-yl)piperidin-1-yl)methanone]
25 | < 100 | COCCCn1c([C@@H]2CCCN(C(=O)C[C@H](N)Cc3ccc(-c4ccc(C(=O)NCCOC)c(F)c4)cc3)C2)nc2ccccc21 [Compound 191, 4′-((R)-2-Amino-4-((R)-3-(1-(3-methoxypropyl)-1H-benzoldlimidazol-2-yl)piperidin-1-yl)-4-oxobutyl)-3-fluoro-N-(2-methoxyethyl)biphenyl-4-carboxamide]
26 | 100 to 1000 | COCCCn1c([C@@H]2CCCN(C(=O)[C@@H]3CN(C(=O)c4ccc(Cl)c(Cl)c4)C[C@H]3N)C2)nc2ccccc21 [Compound 365, ((3R,4S)-4-amino-1-(3,4-dichlorobenzoyl)pyrrolidin-3-yl)((R)-3-(1-(3-methoxypropyl)-1H-benzo[d]imidazol-2-yl)piperidin-1-yl)methanone]
27 | < 100 | COCCCn1c([C@@H]2CCCN(C(=O)C[C@H](N)Cc3ccc(-n4c(=O)n(CCO)c5ccccc54)cc3)C2)nc2ccccc21 [Compound 222, 1-(4-((R)-2-amino-4-((R)-3-(1-(3-methoxypropyl)-1H-benzo[d]imidazol-2-yl)piperidin-1-yl)-4-oxobutyl)phenyl)-3-(2-hydroxyethyl)-1H-benzo[d]imidazol-2(3H)-one]
